Experiment [1] concerns the target acetylcholinesterase (AChE) (Electrophorus electricus, UniProt O42275). In words: modified Ellman spectrophotometric assay with isolated enzyme. In kind it is biochemical. Background: In Ellman's method for cholinesterases, released thiocholine reacts with DTNB.
Experiment [2] addresses T1, amyloid β 1-42 (Aβ42) fibrils (Homo sapiens, UniProt P05067).
T1 construct: gene APP; amyloid β 1-42 peptide, preformed fibrils
Briefly: thioflavin T fluorescence fibril dissociation assay (DC50), supported by AFM. In kind it is biochemical.

Structures can show the parent of a compound that is named as a salt.

As usually defined, the IC50 is the concentration needed to halve the response being measured. High values mean lower potency, low ones higher potency.

T1 sequence (P05067 672-713): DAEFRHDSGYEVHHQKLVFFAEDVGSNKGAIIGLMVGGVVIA
Sequence of acetylcholinesterase (AChE) (O42275 24-633): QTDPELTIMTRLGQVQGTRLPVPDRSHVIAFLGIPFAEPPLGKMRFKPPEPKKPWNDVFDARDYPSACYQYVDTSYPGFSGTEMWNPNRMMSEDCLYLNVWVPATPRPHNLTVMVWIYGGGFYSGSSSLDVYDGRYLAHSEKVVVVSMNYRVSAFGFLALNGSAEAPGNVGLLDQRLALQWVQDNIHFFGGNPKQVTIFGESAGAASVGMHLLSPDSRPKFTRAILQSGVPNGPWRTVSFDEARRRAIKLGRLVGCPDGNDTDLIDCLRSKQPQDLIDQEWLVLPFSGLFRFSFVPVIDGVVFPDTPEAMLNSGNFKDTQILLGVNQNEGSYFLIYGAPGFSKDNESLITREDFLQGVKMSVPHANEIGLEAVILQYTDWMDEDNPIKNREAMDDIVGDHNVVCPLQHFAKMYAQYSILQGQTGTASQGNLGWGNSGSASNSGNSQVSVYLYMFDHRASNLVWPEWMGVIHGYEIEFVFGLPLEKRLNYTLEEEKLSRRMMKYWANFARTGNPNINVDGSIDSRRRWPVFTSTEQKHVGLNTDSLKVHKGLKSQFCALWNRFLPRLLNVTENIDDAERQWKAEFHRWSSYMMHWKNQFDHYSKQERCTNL

As to `Clc1cc2c3c(c4c(nc3c1)CCCC4)NCCN2` [CHDA, 6-chloro-1,2,3,4,9,10,11,12-octahydro-[1,4]-diazepine-[5,6,7-kl]-acridine Monohydrochloride], the IC50 in experiment [1] worked out at 18.5 ± 5.68 nM. For the same compound, the DC50 in experiment [2] was 70800 nM.

These data come from article PMC11444201, “A Novel Tetrahydroacridine Derivative with Potent Acetylcholinesterase Inhibitory Properties and Dissociative Capability against Aβ42 Fibrils Confirmed by In Vitro Studies” (International Journal of Molecular Sciences, 2024).
